# Measurements published in patent US5346828A, “Stereoisomeric enrichment of 2-amino-3-hydroxy-3-phenylpropionic acids using d-threonine aldolase” (Celgene Corporation, priority 1992, dated 1994).
# Assay: incubation of substrate in the same buffer without enzyme (Enzyme 0), HPLC
# Type: physicochemical
# Experimental: D,L-Threo 2-amino-2-methyl-3-hydroxy-3-phenylpropionic acid (14.1 mM) is incubated at pH 8.75 in 50 mM borate buffer and 0.8 mM pyridoxal phosphate with ruptured cells containing approximately 300 μL of enzyme.
# At time intervals of approximately 30, 120 and 210 minutes, 200 μL of the incubation mixture are removed and diluted with 800 μL of 1% perchloric acid. After centrifugation of this mixture, the supernatant is analyzed on HPLC.
compound,measurement,setting,value
"N[C@H](C(=O)O)[C@H](O)c1ccccc1 (relative stereo) [t.phi.S, 2amino-3-hydroxy-3-phenylpropionic acid]",Percentage of total area attributable to benzaldehyde and benzoic acid,30 min.,0%
same,Percentage of total area attributable to benzaldehyde and benzoic acid,120 min.,2.2%
same,Percentage of total area attributable to benzaldehyde and benzoic acid,210 min.,3.7%
